According to the kinase profiling compilation of Christmann-Franck et al. (2016):

Assays:
Assay in all cases: radiometric filter-binding kinase assay, Kinase HotSpot
Details in all cases: compound 0.5 µM; ATP 10 µM
MARK3 (human) = MARK3 (human) (UniProt P27448)
CAMK1G (human) = CAMK1G (human) (UniProt Q96NX5)
LCK (human) = LCK (human) (UniProt P06239)
EPHA6 (human) = EPHA6 (human) (UniProt Q9UF33)
GRK7 (human) = GRK7 (human) (UniProt Q8WTQ7)
BRAF (human) = BRAF (human) (UniProt P15056)
STK16 (human) = STK16 (human) (UniProt O75716)
DMPK (human) = DMPK (human) (UniProt Q09013)
HIPK3 (human) = HIPK3 (human) (UniProt Q9H422)
CSNK2A2 (human) = CSNK2A2 (human) (UniProt P19784)
EGFR (human) = EGFR (human) (UniProt P00533)
ABL1 (human) = ABL1 (human) (UniProt P00519)
[1] = system: ARAF (human), P10398 [Y301D/Y302D]
CAMKK2 (human) = CAMKK2 (human) (UniProt Q96RR4)
STK38 (human) = STK38 (human) (UniProt Q15208)
CDK2 CCNA2 (human) = CDK2 CCNA2 (human) (UniProt P24941+P20248)
MELK (human) = MELK (human) (UniProt Q14680)
ULK3 (human) = ULK3 (human) (UniProt Q6PHR2)
MAPK8 (human) = MAPK8 (human) (UniProt P45983)
MUSK (human) = MUSK (human) (UniProt O15146)
PKN1 (human) = PKN1 (human) (UniProt Q16512)
EPHB1 (human) = EPHB1 (human) (UniProt P54762)
IRAK4 (human) = IRAK4 (human) (UniProt Q9NWZ3)
ALK (human) = ALK (human) (UniProt Q9UM73)
MAP3K7 TAB1 (human) = MAP3K7 TAB1 (human) (UniProt O43318+Q15750)
YES1 (human) = YES1 (human) (UniProt P07947)
PKN2 (human) = PKN2 (human) (UniProt Q16513)
AURKB (human) = AURKB (human) (UniProt Q96GD4)
EPHA8 (human) = EPHA8 (human) (UniProt P29322)
MAP3K2 (human) = MAP3K2 (human) (UniProt Q9Y2U5)
MYO3B (human) = MYO3B (human) (UniProt Q8WXR4)
CSNK1G3 (human) = CSNK1G3 (human) (UniProt Q9Y6M4)
PDGFRB (human) = PDGFRB (human) (UniProt P09619)
CSNK1D (human) = CSNK1D (human) (UniProt P48730)
SLK (human) = SLK (human) (UniProt Q9H2G2)
MAP3K8 (human) = MAP3K8 (human) (UniProt P41279)
PRKACG (human) = PRKACG (human) (UniProt P22612)
TLK2 (human) = TLK2 (human) (UniProt Q86UE8)
MATK (human) = MATK (human) (UniProt P42679)
JAK2 JH1 JH2 (human) = JAK2 JH1 JH2 (human) (UniProt O60674)
FLT1 (human) = FLT1 (human) (UniProt P17948)

Sequence of JAK2 JH1 JH2 (human) (O60674 whole entry, looked up): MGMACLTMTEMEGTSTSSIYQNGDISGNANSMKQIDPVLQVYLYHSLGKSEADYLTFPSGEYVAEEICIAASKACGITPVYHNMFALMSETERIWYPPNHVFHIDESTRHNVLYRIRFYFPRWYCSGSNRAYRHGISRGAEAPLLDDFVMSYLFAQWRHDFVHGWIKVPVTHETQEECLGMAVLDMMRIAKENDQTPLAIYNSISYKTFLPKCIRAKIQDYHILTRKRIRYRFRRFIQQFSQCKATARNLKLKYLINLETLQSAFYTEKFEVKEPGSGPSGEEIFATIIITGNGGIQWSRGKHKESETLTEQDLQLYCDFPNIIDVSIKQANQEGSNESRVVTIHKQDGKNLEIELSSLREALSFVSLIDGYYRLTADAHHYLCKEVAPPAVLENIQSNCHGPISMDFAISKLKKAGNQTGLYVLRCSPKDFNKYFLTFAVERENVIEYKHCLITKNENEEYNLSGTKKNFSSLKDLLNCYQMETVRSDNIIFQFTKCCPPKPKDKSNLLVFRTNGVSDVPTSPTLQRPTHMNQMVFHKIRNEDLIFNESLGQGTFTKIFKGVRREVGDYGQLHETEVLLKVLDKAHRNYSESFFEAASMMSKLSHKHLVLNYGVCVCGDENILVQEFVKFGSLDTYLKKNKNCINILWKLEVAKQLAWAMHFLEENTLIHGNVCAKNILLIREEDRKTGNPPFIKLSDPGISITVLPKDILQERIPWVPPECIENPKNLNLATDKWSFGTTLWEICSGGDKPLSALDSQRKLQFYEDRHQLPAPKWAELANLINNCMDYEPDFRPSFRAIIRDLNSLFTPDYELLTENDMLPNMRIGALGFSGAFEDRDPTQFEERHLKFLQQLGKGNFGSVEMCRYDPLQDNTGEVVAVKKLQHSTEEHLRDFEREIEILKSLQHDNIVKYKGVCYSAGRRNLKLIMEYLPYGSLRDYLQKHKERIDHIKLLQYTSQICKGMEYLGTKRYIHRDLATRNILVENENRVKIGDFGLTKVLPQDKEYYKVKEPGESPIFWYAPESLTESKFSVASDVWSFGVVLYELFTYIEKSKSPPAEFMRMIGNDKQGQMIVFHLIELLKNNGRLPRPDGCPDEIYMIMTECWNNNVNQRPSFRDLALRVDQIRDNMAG
Sequence of IRAK4 (human) (Q9NWZ3 whole entry, looked up): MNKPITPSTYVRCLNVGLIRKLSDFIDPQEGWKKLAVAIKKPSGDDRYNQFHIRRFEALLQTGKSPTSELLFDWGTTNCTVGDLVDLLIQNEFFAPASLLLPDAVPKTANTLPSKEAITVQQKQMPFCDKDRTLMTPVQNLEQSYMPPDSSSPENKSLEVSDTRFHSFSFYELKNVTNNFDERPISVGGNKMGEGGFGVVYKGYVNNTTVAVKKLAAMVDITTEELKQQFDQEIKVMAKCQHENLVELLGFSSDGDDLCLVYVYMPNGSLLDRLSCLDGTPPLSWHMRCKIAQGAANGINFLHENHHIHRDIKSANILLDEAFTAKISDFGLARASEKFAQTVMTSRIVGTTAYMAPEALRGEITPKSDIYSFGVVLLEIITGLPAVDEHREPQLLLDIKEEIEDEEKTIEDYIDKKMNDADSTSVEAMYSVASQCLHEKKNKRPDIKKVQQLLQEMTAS
Sequence of CDK2 CCNA2 (human) (P20248 whole entry, looked up, other chains not shown): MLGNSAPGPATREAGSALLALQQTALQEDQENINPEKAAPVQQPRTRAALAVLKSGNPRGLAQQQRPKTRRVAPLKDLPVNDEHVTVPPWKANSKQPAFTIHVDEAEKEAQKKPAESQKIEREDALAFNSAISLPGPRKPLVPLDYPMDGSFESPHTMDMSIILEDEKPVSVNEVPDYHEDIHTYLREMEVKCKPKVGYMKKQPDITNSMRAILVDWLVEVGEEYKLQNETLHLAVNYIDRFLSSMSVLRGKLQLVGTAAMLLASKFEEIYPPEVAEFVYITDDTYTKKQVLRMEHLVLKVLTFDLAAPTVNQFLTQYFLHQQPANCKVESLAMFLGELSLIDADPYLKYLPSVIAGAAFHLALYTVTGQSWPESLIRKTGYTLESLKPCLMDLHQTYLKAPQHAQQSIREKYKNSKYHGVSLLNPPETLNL
Sequence of EGFR (human) (P00533 whole entry, looked up): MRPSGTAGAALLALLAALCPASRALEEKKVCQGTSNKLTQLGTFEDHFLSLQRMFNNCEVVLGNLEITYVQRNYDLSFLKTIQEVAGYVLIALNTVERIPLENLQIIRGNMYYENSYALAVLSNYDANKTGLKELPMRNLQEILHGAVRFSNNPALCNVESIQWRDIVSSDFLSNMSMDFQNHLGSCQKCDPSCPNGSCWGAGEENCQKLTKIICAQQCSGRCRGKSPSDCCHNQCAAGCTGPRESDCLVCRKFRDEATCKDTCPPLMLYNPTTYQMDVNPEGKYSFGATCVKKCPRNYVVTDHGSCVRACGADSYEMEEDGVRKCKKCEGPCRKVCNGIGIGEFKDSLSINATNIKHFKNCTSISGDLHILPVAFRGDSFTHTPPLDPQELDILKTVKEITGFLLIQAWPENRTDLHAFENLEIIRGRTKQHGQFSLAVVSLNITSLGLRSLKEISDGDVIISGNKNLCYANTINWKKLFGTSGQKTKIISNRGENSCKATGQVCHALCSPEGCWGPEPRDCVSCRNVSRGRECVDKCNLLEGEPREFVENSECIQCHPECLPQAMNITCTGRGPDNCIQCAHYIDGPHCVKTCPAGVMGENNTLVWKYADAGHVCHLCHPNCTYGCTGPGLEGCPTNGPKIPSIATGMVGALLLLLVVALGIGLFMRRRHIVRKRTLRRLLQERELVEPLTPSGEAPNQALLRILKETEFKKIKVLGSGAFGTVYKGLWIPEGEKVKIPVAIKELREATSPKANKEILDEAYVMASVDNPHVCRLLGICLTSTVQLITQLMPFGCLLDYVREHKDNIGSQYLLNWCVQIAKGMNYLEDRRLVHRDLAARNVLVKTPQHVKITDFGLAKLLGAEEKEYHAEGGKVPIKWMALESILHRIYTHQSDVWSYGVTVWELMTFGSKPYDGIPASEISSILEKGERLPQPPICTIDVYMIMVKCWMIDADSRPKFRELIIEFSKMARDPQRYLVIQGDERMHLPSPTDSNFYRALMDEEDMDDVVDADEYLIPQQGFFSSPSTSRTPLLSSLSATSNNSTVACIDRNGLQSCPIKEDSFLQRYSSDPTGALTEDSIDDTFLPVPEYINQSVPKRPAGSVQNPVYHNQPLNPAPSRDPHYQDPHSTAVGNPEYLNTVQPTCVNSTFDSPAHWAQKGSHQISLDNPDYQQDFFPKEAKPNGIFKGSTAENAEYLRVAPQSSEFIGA
Sequence of CSNK1G3 (human) (Q9Y6M4 whole entry, looked up): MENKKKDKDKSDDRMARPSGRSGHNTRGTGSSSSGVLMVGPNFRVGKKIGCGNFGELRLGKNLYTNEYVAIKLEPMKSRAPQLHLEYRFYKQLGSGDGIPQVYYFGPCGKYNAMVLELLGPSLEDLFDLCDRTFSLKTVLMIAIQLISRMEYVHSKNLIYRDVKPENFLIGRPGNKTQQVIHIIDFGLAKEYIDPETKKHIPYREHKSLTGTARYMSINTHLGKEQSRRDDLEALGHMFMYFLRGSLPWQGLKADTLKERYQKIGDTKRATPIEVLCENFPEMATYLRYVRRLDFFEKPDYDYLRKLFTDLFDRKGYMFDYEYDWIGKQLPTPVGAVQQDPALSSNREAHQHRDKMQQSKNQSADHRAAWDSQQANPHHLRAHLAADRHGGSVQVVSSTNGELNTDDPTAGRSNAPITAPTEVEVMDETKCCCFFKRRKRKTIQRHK
Sequence of CAMK1G (human) (Q96NX5 whole entry, looked up): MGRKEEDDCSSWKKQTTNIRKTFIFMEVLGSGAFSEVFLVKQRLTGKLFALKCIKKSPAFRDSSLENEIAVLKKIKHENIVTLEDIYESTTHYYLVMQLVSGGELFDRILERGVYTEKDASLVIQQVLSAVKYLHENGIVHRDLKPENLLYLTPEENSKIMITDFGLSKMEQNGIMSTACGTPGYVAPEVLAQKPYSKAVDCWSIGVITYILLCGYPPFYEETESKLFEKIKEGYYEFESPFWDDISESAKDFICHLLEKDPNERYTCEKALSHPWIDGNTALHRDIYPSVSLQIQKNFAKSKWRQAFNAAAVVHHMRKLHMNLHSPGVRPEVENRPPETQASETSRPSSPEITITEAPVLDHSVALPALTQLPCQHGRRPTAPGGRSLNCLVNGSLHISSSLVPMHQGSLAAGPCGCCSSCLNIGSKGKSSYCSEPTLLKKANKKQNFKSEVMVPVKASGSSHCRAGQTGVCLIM
Sequence of STK38 (human) (Q15208 whole entry, looked up): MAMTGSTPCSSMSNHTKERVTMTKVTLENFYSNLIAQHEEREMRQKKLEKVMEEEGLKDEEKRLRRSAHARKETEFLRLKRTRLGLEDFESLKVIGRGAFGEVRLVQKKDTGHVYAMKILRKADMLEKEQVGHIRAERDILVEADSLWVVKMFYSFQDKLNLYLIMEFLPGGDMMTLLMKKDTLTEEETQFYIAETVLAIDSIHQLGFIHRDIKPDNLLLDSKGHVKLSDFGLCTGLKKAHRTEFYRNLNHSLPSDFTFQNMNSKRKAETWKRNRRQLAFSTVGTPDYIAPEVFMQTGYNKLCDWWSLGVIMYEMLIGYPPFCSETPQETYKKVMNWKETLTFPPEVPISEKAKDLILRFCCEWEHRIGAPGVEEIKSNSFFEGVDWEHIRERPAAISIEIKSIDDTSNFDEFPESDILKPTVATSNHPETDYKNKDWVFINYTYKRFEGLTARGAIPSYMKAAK
Sequence of STK16 (human) (O75716 whole entry, looked up): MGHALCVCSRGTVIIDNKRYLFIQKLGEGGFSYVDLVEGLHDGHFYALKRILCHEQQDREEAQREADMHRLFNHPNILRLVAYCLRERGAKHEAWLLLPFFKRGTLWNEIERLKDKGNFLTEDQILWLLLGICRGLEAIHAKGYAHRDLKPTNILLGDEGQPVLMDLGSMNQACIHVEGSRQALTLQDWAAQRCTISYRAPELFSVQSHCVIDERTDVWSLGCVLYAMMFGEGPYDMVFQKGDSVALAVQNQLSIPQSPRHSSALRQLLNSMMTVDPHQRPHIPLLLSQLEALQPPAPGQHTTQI

Work on CSc1nc(-c2ccc(F)cc2)c(-c2ccnc(NC(C)c3ccccc3)c2)[nH]1 (configuration not stated) yielded a residual activity (MARK3 (human)) of 100%, a residual activity (CAMK1G (human)) of 98.3% and a residual activity (LCK (human)) of 102%. For the same compound, the residual activity (EPHA6 (human)) was 75.8%, the residual activity (GRK7 (human)) was 100% and the residual activity (BRAF (human)) was 91.8%. For the same compound, the residual activity (STK16 (human)) was 95.1%, the residual activity (DMPK (human)) was 80% and the residual activity (HIPK3 (human)) was 101%. It also gave a residual activity (CSNK2A2 (human)) of 88.8%, a residual activity (EGFR (human)) of 87.1% and a residual activity (ABL1 (human)) of 103%. It also gave a residual activity [1] of 99%, a residual activity (CAMKK2 (human)) of 84% and a residual activity (STK38 (human)) of 104%. It also gave a residual activity (CDK2 CCNA2 (human)) of 96.8%, a residual activity (MELK (human)) of 94.2% and a residual activity (ULK3 (human)) of 85.3%. For the same compound, the residual activity (MAPK8 (human)) was 86.3%, the residual activity (MUSK (human)) was 101% and the residual activity (PKN1 (human)) was 105%. The residual activity (EPHB1 (human)) was 96.4%, the residual activity (IRAK4 (human)) was 82.6% and the residual activity (ALK (human)) was 93.3%. The residual activity (MAP3K7 TAB1 (human)) was 90.5%, the residual activity (YES1 (human)) was 91.8% and the residual activity (PKN2 (human)) was 76.1%. For the same compound, the residual activity (AURKB (human)) was 98.4%, the residual activity (EPHA8 (human)) was 82.2% and the residual activity (MAP3K2 (human)) was 101%. The residual activity (MYO3B (human)) was 100%, the residual activity (CSNK1G3 (human)) was 58.4% and the residual activity (PDGFRB (human)) was 97.6%. For the same compound, the residual activity (CSNK1D (human)) was 41.9%, the residual activity (SLK (human)) was 104% and the residual activity (MAP3K8 (human)) was 88.6%. It also gave a residual activity (PRKACG (human)) of 115%, a residual activity (TLK2 (human)) of 106% and a residual activity (MATK (human)) of 87%. For the same compound, the residual activity (JAK2 JH1 JH2 (human)) was 102% and the residual activity (FLT1 (human)) was 71.5%.

Work on Cc1ccc(NC(=O)c2ccc(CN3CCN(C)CC3)cc2)cc1Nc1nc(-c2cccnc2)cs1 yielded a residual activity (MARK3 (human)) of 100%, a residual activity (CAMK1G (human)) of 106% and a residual activity (LCK (human)) of 7.63%. For the same compound, the residual activity (EPHA6 (human)) was 98.2%, the residual activity (GRK7 (human)) was 104% and the residual activity (BRAF (human)) was 92.3%. It also gave a residual activity (STK16 (human)) of 103%, a residual activity (DMPK (human)) of 104% and a residual activity (HIPK3 (human)) of 101%. The residual activity (CSNK2A2 (human)) was 86.7%, the residual activity (EGFR (human)) was 99.6% and the residual activity (ABL1 (human)) was 49.8%. For the same compound, the residual activity [1] was 102%, the residual activity (CAMKK2 (human)) was 101% and the residual activity (STK38 (human)) was 95.9%. It also gave a residual activity (CDK2 CCNA2 (human)) of 94.7%, a residual activity (MELK (human)) of 84.8% and a residual activity (ULK3 (human)) of 104%. It also gave a residual activity (MAPK8 (human)) of 107%, a residual activity (MUSK (human)) of 99% and a residual activity (PKN1 (human)) of 99.3%. For the same compound, the residual activity (EPHB1 (human)) was 94.9%, the residual activity (IRAK4 (human)) was 97.4% and the residual activity (ALK (human)) was 103%. For the same compound, the residual activity (MAP3K7 TAB1 (human)) was 98.6%, the residual activity (YES1 (human)) was 50.7% and the residual activity (PKN2 (human)) was 108%. For the same compound, the residual activity (AURKB (human)) was 99.5%, the residual activity (EPHA8 (human)) was 93.1% and the residual activity (MAP3K2 (human)) was 102%. For the same compound, the residual activity (MYO3B (human)) was 82.6%, the residual activity (CSNK1G3 (human)) was 96.8% and the residual activity (PDGFRB (human)) was 17.3%. The residual activity (CSNK1D (human)) was 92.7%, the residual activity (SLK (human)) was 92.4% and the residual activity (MAP3K8 (human)) was 91.5%. The residual activity (PRKACG (human)) was 110%, the residual activity (TLK2 (human)) was 94.5% and the residual activity (MATK (human)) was 85.9%. It also gave a residual activity (JAK2 JH1 JH2 (human)) of 96.3% and a residual activity (FLT1 (human)) of 96.4%.
